In test [1] the test system is Ser137 of DARPP-32 (CK1 site). The test can be described thus: DARPP-32 phospho-Ser137 immunoblot in neostriatal slices. Type of test: cell-based, mouse. The procedure: (§1) Neostriatal slices were prepared from male C57/BL6 mice (6–8 weeks old) in accordance with methods known in the art (Nishi, A. et al. 1997, J. Neurosci. 17:8147–8155). Slices were treated with a drug. After drug treatment, slices were immediately frozen in liquid nitrogen, and stored at −80° C. until assayed.
(§2) Frozen slices were sonicated in hot homogenization buffer containing 1% SDS and 50 mM NaF, and samples were boiled for 10 minutes. SDS-PAGE sample buffer was then added and samples were boiled for 5 minutes. Samples (approximately 120 μg of total protein) were separated by SDS-PAGE (10% polyacrylamide) and then transferred to nitrocellulose. In most studies, immunoblots were first probed with anti-phospho-Ser137 DARPP-32 antibody. The blots were then stripped and probed with anti-phospho-Thr75 DARPP-32 antibody. Blots were stripped again and probed with anti-total DARPP-32 antibody. […] Chemiluminescence was detected by autoradiography and bands were quantified by analysis of scanned images using NIH IMAGE 1.52 software. Data were statistically analyzed by Student's t test in Microsoft EXCEL™ software as indicated.
(§3) Neostriatal slices were prepared from male C57/BL6 mice (6–8 weeks old) as disclosed (22). Slices were treated with drugs as specified in the text and figure legends. After drug treatment, slices were immediately frozen in liquid nitrogen, and stored at −80° C. until assayed.
(§4) Frozen slices were sonicated in hot homogenization buffer containing 1% SDS and 50 mM NaF, and samples were boiled for 10 min. SDS-PAGE sample buffer was then added and samples were boiled for 5 min. Samples (approximately 120 μg protein) were separated by SDS-PAGE (10% polyacrylamide) and transferred to nitrocellulose. Immunoblots were first probed with antiphospho-Ser-137 DARPP-32 antibody. The blots were stripped and probed with anti-phosphoThr-75 DARPP-32 antibody. Blots were stripped again and probed with anti-total DARPP-32 antibody. Antibody binding was detected by enhanced chemiluminescence (ECL) using X-ray film, and images were analyzed by laser scanning densitometry using NIH Image 1.52 software. Data were statistically analyzed by Student's t-test using Microsoft EXCEL™ software as indicated.

For test [2], the system named is CKI. The test can be described thus: in vitro inhibitory potency of CKI-7 towards CKI. The format is biochemical. The procedure:
(§5) CKI may also regulate Cdk5 kinase activity in response to mGluR receptor activation, or vice versa. To examine these possibilities, experiments were performed with a CKI inhibitor, CKI-7. The crystal structure of the catalytic domain of casein kinase I complexed with CKI-7 provided evidence that CKI-7 achieves its selectivity for CKI by hydrophobic contacts and hydrogen bonding with the isoquinoline ring (Xu, R. M. et al. 1996. Proc. Natl. Acad. Sci. USA 93:6308–6313). In in vitro studies, the inhibitory potency (IC50 values) for CKI-7 towards CKI and Cdk5/p25 was determined.

For test [3], the target named is Cdk5/p25 (Homo sapiens, UniProt Q00535). The experiment in a line: in vitro inhibitory potency of CKI-7 towards Cdk5/p25. The format is biochemical. The procedure: as §5
The test system of test [4] is Cdk5. The test can be described thus: Cdk5 kinase activity immunoprecipitated from neostriatal slices, histone H-1 as substrate. The format is cell-based, mouse. The procedure:
as §1
For Cdk5 immunoprecipitation, striatal tissue slices (approximately 150 μg total protein) were lysed using a Dounce homogenizer and 1 ml of lysis buffer (150 mM NaCl, 20 mM Tris-HCl (pH 7.4), 1 mM EDTA, 0.5% NP-40, 5 mM NaF, 5 mM Na3PO4 and protease inhibitors). Lysates were centrifuged at 10,000 g for 10 minutes at 4° C. Supernatants were pre-cleared by adding rabbit IgG-conjugated agarose for 40 minutes at 4° C. Ten μl of Cdk5 antibody conjugated to agarose were added and samples were incubated for 1 hour at 4° C. with mixing. Agarose pellets were collected and washed three times with 1 ml of lysis buffer and two times with kinase assay buffer (50 mM Hepes (pH 7.5), 10 mM MgCl2, 1 mM DTT). Cdk5 kinase assays were performed in a 30-μl reaction mixtures with 2 μg Histone H-1, 500 μM ATP and 5 μCi of γ-^32P-ATP. Samples were incubated at 30° C. for 10 minutes, reactions were stopped by addition of SDS-sample buffer, and samples were boiled for 5 minutes. Samples were separated by SDS-PAGE and analyzed as disclosed above for CKI assays. Data were analyzed by Student's t-test in Microsoft Excel software as indicated, with significance defined as p<0.05.
CK1 assays were performed in a 30 μl assay volume with 2 μg of purified DARPP-32, 500 μM ATP and 5 μCi γ-^32P-ATP. Reactions were started by addition of the ATP. Samples were incubated at 30° C. for 10 min and reactions were stopped by addition of SDS-sample buffer and boiled for 5 min. Samples were separated by SDS-PAGE (12% polyacrylamide). SDS-PAGE gels were dried and exposed to Kodak film for autoradiography. Results were quantified using a Molecular Dynamics PHOSPHORIMAGER™. Immunoprecipitation and assay of Cdk5 were performed as disclosed (20).

Test [5] relates to Thr75 of DARPP-32 (Cdk5 site). The test can be described thus: DARPP-32 phospho-Thr75 immunoblot in neostriatal slices. The format is cell-based, mouse. The procedure: as §1, §2, §3, §4
Test [6] deals with MM2-CK1ε. The experiment in a line: phosphopeptide mapping of MM2-CK1ε in N2a cells. The conditions noted are these: DHPG 2 min. The format is cell-based. The procedure: Twenty-four hours after transfecting N2a cells with CK1ε expression plasmids, cells were incubated in 200 μCi/ml (NEN) ^32P-inorganic phosphate and phosphate-free serum-free DMEM for 2 h. […] Cells were treated with DHPG for various periods of time as indicated, harvested by lysis in RIPA buffer and clarified by centrifugation at 14,000×g for 10 min. Soluble extracts containing HA- or Myc-tagged proteins were immunoprecipitated with 12CA5 or 9E10 monoclonal antibody and protein A-agarose. The immunoprecipitates were eluted from the protein A-agarose and separated by SDS-PAGE on 10% gel. Proteins were stained briefly with Coomassie Brilliant Blue, the gels were dried, and the labeled proteins were visualized by autoradiography.
Radiolabeled protein bands were excised, rehydrated, de-stained and dried in a speedvac. The gel slices were minced and rehydrated in 75 μg/ml TPCK/trypsin in 50 mM NH4CO3H (1 ml final volume) for 24 h at 37° C. The supernatant was removed from the gel slices and then lyophilized to dryness. Recovery of tryptic phosphopeptides was determined by Cerenkov counting. The two-dimensional peptide mapping method was used to separate phosphopeptides (23). Lyophilized tryptic peptides were suspended in 10 μl of electrophoresis buffer (10% acetic acid and 1% pyridine, pH 3.5) and spotted onto thin-layer cellulose plates (20×20 cm, Analtech). […]

Test [7] has as its system HA-CK1ε. The experiment in a line: 32P metabolic labeling and two-dimensional phosphopeptide mapping of HA-CK1ε in N2a cells. The format is cell-based. The conditions noted are these: DHPG 2 or 4 min; returned to 0 min level at ten min.
Where [8] appears, read: 50 μM CKI-7, 30 min before DHPG 2 min.
Setting [9] is: CKI-7 100 to 300 μM, 30 min before DHPG 2 min.
[10] abbreviates: DHPG 100 μM, group I mGluR activation.
[11] abbreviates: slices treated with drug alone: DHPG 100 μM, ionomycin 2 μM.

Entries after “also recorded” stand apart in the source; their conditions may differ.

Chain of Cdk5/p25 (Q00535 whole entry, species assumed): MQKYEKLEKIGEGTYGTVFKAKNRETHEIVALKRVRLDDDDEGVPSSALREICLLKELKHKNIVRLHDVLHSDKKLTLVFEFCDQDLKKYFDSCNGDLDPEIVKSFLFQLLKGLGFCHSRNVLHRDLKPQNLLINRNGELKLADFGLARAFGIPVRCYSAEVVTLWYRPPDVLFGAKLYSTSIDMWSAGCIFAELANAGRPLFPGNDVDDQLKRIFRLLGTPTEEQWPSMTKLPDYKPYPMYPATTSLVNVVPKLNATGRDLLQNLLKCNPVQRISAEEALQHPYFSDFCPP
Chain of Cdk5/p25 (Q15078 99-307 partner limits assumed, species assumed): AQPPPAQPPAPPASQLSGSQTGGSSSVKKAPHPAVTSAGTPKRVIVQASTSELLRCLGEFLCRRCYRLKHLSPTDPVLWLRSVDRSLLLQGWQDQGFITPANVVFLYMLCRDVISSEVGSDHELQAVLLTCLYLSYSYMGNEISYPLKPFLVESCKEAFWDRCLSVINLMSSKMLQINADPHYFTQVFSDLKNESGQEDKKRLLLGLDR

`NCCNS(=O)(=O)c1ccc(Cl)c2ccncc12` [CKI-7]: the “effect on basal or DHPG-stimulated DARPP-32 phosphorylation at Ser137” value in test [1] (setting [8]) is “little effect”. Further, the “effect on basal and DHPG-stimulated DARPP-32 phosphorylation at Ser137” value in test [1] (setting [9]) is given as “dose-dependent decreases”. Besides, the IC50 (commonly the concentration at which inhibition is half-maximal) in test [2] is 15 µM; in test [3], 200 µM. Also, in test [4] (CKI-7 dose-dependent, U73122 10 μM, BAPTA/AM 20 μM, cyclosporin A 5 μM), the “effect of pretreatment on the effect of DHPG on Cdk5 kinase activity” value is listed as “attenuated”. The “effect on basal or DHPG-stimulated DARPP-32 phosphorylation at Thr75” value in test [5] (setting [8]) was “little effect”. The “effect on basal and DHPG-stimulated DARPP-32 phosphorylation at Thr75” value in test [5] (setting [9]) is listed as “dose-dependent decreases”.
In the case of `N[C@H](C(=O)O)c1cc(O)cc(O)c1` [DHPG, (S)-3,5-Dihydroxyphenylglycine], the “increase in phosphorylation of Ser137” value in test [1] (setting [10]) was 2–3 fold. In addition, in test [1] (DHPG 100 μM, back to basal level by 5 minutes), the “time of peak level of phosphorylation of Ser137” value worked out at 2 min. The “effect on phosphorylation of Ser137 in DARPP-32” value in test [1] (setting [11]) was “rapid but transient increase”. The “effect on phosphorylation of MM2-CK1ε” value in test [6] is recorded as “no effect”. Further, the “effect on phosphorylation state of CK1ε (subset of acidic phosphopeptides)” value in test [7] is “rapid and transient dephosphorylation”. Moreover, the “effect on Cdk5 kinase activity” value in test [4] (DHPG treatment of slices) is given as “rapid but transient increase; also recorded: increased”. The “increase in Cdk5 activity” value in test [4] (DHPG, after 2 minutes, back to basal level after 5 minutes) was “approximately 4 fold”. Besides, the “increase in phosphorylation of Thr75” value in test [5] (setting [10]) was 2–3 fold. The “effect on phosphorylation of Thr75 in DARPP-32” value in test [5] (setting [11]) was “rapid but transient increase”.

Values taken from patent US7129073B2, “Regulation of neuronal function through metabotropic glutamate receptor signaling pathways” (The Rockefeller University, priority 2001, dated 2006).
